Biological target: T1, KRAS (G12D) (Homo sapiens, UniProt P01116, G12D)
T1 construct: in-cell western with KRAS G12D antibody after 24 h
Assay: KRAS (G12D) cellular degradation assay in AsPC-1 cells
Type: cell-based
Conditions: 24 hours, antibody fluorescence (Odyssey CLX), DC50 half-maximal degradation concentration
Summary of the method: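 AsPC-1 cells were seeded at 22,000/well for degradation and 3,500/well for proliferation. Compounds in 1:3 dilutions ([…] to 1.5 nM final) ran 24 h for degradation, read by in-cell immunofluorescence of KRAS G12D normalised to β-actin, and 6 days for proliferation (CellTiter Glo luminescence). DC50/IC50 came from dose-response fits.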

T1 sequence (P01116 1-188 isoform P01116-2 G12D): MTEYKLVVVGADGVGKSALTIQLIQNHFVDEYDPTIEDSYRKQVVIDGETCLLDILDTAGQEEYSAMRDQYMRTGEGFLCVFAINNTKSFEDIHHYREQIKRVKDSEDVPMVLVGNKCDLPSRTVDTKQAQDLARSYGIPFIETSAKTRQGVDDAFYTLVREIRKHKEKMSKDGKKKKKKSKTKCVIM

Structure (SMILES) | DC50
CCn1nccc1-c1ccc([C@H](CO)NC(=O)[C@@H]2C[C@@H](O)CN2C(=O)[C@H](C(C)C)n2cc(-c3ccc(COc4c(-c5c(C)c(F)cc6[nH]ncc56)c(C5CC5)cc5c(N6CC7CNCC7C6)nc(OC[C@H](C)OC)nc45)cc3)nn2)cc1 (stereo partly drawn) [Example 227, (2S,4R)-1-((2S)-2-(4-(4-(((6-cyclopropyl-7-(6-fluoro-5-methyl-1H-indazol-4-yl)-4-(hexahydropyrrolo[3,4-c]pyrrol-2(1H)-yl)-2-((S)-2-methoxypropoxy)quinazolin-8-yl)oxy)methyl)phenyl)-1H-1,2,3-triazol-1-yl)-3-methylbutanoyl)-N—((R)-1-(4-(1-ethyl-1H-pyrazol-5-yl)phenyl)-2-hydroxyethyl)-4-hydroxypyrrolidine-2-carboxamide] | 10 to 100 nM
CCn1nccc1-c1ccc([C@H](CO)NC(=O)[C@@H]2C[C@@H](O)CN2C(=O)[C@H](C(C)C)n2cc(-c3ccc(COc4c(-c5c(C)c(F)cc6[nH]ncc56)c(C5CC5)cc5c(N(C)C[C@@H]6CCCN6)nc(OC[C@H](C)OC)nc45)cc3)nn2)cc1 [Example 228, (2S,4R)-1-((2S)-2-(4-(4-(((6-cyclopropyl-7-(6-fluoro-5-methyl-1H-indazol-4-yl)-2-((S)-2-methoxypropoxy)-4-(methyl(((S)-pyrrolidin-2-yl)methyl)amino)quinazolin-8-yl)oxy)methyl)phenyl)-1H-1,2,3-triazol-1-yl)-3-methylbutanoyl)-N—((R)-1-(4-(1-ethyl-1H-pyrazol-5-yl)phenyl)-2-hydroxyethyl)-4-hydroxypyrrolidine-2-carboxamide] | < 10 nM
CCn1nccc1-c1ccc([C@H](CO)NC(=O)[C@@H]2C[C@@H](O)CN2C(=O)[C@H](C(C)C)n2cc(-c3ccc(COc4c(-c5c(C)c(F)cc6[nH]ncc56)c(C5CC5)cc5c(N6C[C@@H]7CN[C@@H](C7)C6)nc(OC[C@H](C)OC)nc45)cc3)nn2)cc1 [Example 229, (2S,4R)-1-((2S)-2-(4-(4-(((4-((1S,5S)-3,6-diazabicyclo[3.2.1]octan-3-yl)-6-cyclopropyl-7-(6-fluoro-5-methyl-1H-indazol-4-yl)-2-((S)-2-methoxypropoxy)quinazolin-8-yl)oxy)methyl)phenyl)-1H-1,2,3-triazol-1-yl)-3-methylbutanoyl)-N—((R)-1-(4-(1-ethyl-1H-pyrazol-5-yl)phenyl)-2-hydroxyethyl)-4-hydroxypyrrolidine-2-carboxamide] | 10 to 100 nM
CO[C@@H](C)COc1nc(N2C[C@@H]3CN[C@@H](C3)C2)c2cc(C3CC3)c(-c3c(C)c(F)cc4[nH]ncc34)c(OCc3ccc(-c4cn([C@H](C(=O)N5C[C@H](O)C[C@H]5C(=O)N[C@@H](CO)c5ccc(-c6scnc6C)cc5)C(C)C)nn4)cc3)c2n1 [Example 230, (2S,4R)-1-((2S)-2-(4-(4-(((4-((1S,5S)-3,6-diazabicyclo[3.2.1]octan-3-yl)-6-cyclopropyl-7-(6-fluoro-5-methyl-1H-indazol-4-yl)-2-((S)-2-methoxypropoxy)quinazolin-8-yl)oxy)methyl)phenyl)-1H-1,2,3-triazol-1-yl)-3-methylbutanoyl)-4-hydroxy-N—((R)-2-hydroxy-1-(4-(4-methylthiazol-5-yl)phenyl)ethyl)pyrrolidine-2-carboxamide] | 10 to 100 nM
